SMILES strings stand for the structures.

In the first assay the test system is DU-145. Briefly: Antiproliferative activity against human DU145 cells. The format is functional, cell-based.
`COC(=O)[C@H](Cc1ccc(O)cc1)NC(=O)CC/C(C)=C/Cc1c(O)c2c(c(C)c1OC)COC2=O` registered a half-maximal inhibitory concentration (IC50) of 6.3 µM.

On to `COc1c(C)c2c(c(O)c1C/C=C(\C)CCC(=O)NC[C@H]1O[C@@H](n3cnc4c(N)ncnc43)[C@H](O)[C@@H]1O)C(=O)OC2`, for which the IC50 is above 100 µM.

`COc1c(C)c2c(c(O)c1C/C=C(\C)CCC(=O)N[C@@H](Cc1ccccc1)C(=O)NC[C@H]1O[C@@H](n3cnc4c(N)ncnc43)[C@H](O)[C@@H]1O)C(=O)OC2`: the IC50 is above 100 µM.

`COc1c(C)c2c(c(O)c1C/C=C(\C)CCC(=O)N[C@H](Cc1c[nH]c3ccccc13)C(=O)NC[C@H]1O[C@@H](n3cnc4c(N)ncnc43)[C@H](O)[C@@H]1O)C(=O)OC2` showed a half-inhibitory concentration (IC50) above 100 µM.

As to `COc1c(C)c2c(c(O)c1C/C=C(\C)CCC(=O)N[C@H](Cc1c[nH]c3ccccc13)C(=O)O)C(=O)OC2`, the 50% inhibitory concentration (IC50) was above 100 µM.

`COC(=O)[C@H](Cc1ccccc1)NC(=O)CC/C(C)=C/Cc1c(O)c2c(c(C)c1OC)COC2=O`: the half-inhibitory concentration (IC50) was above 100 µM.

Consider `COc1c(C)c2c(c(O)c1C/C=C(\C)CCC(=O)N[C@@H](C(=O)NC[C@H]1O[C@@H](n3cnc4c(N)ncnc43)[C@H](O)[C@@H]1O)C(C)C)C(=O)OC2`, for which the IC50 is above 100 µM.

The next assay relates to K562. The assay is described as follows: Antiproliferative activity against human K562 cells. The format is functional, cell-based.
In the case of `COC(=O)[C@H](Cc1ccc(O)cc1)NC(=O)CC/C(C)=C/Cc1c(O)c2c(c(C)c1OC)COC2=O`, the IC50 turned out to be 6.8 µM.

In turn, `COc1c(C)c2c(c(O)c1C/C=C(\C)CCC(=O)NC[C@H]1O[C@@H](n3cnc4c(N)ncnc43)[C@H](O)[C@@H]1O)C(=O)OC2` yielded an IC50 of 49 µM.

`COc1c(C)c2c(c(O)c1C/C=C(\C)CCC(=O)N[C@@H](Cc1ccccc1)C(=O)NC[C@H]1O[C@@H](n3cnc4c(N)ncnc43)[C@H](O)[C@@H]1O)C(=O)OC2` yielded an IC50 above 100 µM.

`COc1c(C)c2c(c(O)c1C/C=C(\C)CCC(=O)N[C@H](Cc1c[nH]c3ccccc13)C(=O)NC[C@H]1O[C@@H](n3cnc4c(N)ncnc43)[C@H](O)[C@@H]1O)C(=O)OC2`: the IC50 was above 100 µM.

For `COc1c(C)c2c(c(O)c1C/C=C(\C)CCC(=O)N[C@H](Cc1c[nH]c3ccccc13)C(=O)O)C(=O)OC2`, the half-inhibitory concentration (IC50) was above 100 µM.

Compound `COC(=O)[C@H](Cc1ccccc1)NC(=O)CC/C(C)=C/Cc1c(O)c2c(c(C)c1OC)COC2=O` yielded an IC50 of 50 µM.

`COc1c(C)c2c(c(O)c1C/C=C(\C)CCC(=O)N[C@@H](C(=O)NC[C@H]1O[C@@H](n3cnc4c(N)ncnc43)[C@H](O)[C@@H]1O)C(C)C)C(=O)OC2` gave an IC50 above 100 µM.

The target in a further assay is Inosine-5'-monophosphate dehydrogenase 2 (Homo sapiens, UniProt P12268). The assay is described as follows: Inhibition of IMPDH2 (unknown origin).
In turn, `COC(=O)[C@H](Cc1ccc(O)cc1)NC(=O)CC/C(C)=C/Cc1c(O)c2c(c(C)c1OC)COC2=O` showed a Ki of 0.364 µM.

Compound `COc1c(C)c2c(c(O)c1C/C=C(\C)CCC(=O)NC[C@H]1O[C@@H](n3cnc4c(N)ncnc43)[C@H](O)[C@@H]1O)C(=O)OC2` came in with a Ki of 0.084 µM.

`COc1c(C)c2c(c(O)c1C/C=C(\C)CCC(=O)N[C@@H](Cc1ccccc1)C(=O)NC[C@H]1O[C@@H](n3cnc4c(N)ncnc43)[C@H](O)[C@@H]1O)C(=O)OC2` gave a Ki of 0.188 µM.

Regarding `COc1c(C)c2c(c(O)c1C/C=C(\C)CCC(=O)N[C@H](Cc1c[nH]c3ccccc13)C(=O)NC[C@H]1O[C@@H](n3cnc4c(N)ncnc43)[C@H](O)[C@@H]1O)C(=O)OC2`, the inhibitory constant (Ki) was 0.04 µM.

`COc1c(C)c2c(c(O)c1C/C=C(\C)CCC(=O)N[C@H](Cc1c[nH]c3ccccc13)C(=O)O)C(=O)OC2` registered a Ki of 0.174 µM.

Regarding `COC(=O)[C@H](Cc1ccccc1)NC(=O)CC/C(C)=C/Cc1c(O)c2c(c(C)c1OC)COC2=O`, the affinity corresponds to a Ki of 0.437 µM.

With `COc1c(C)c2c(c(O)c1C/C=C(\C)CCC(=O)N[C@@H](C(=O)NC[C@H]1O[C@@H](n3cnc4c(N)ncnc43)[C@H](O)[C@@H]1O)C(C)C)C(=O)OC2`, the Ki amounted to 0.088 µM.

The subject of a further assay is HL-60. The assay is described as follows: Antiproliferative activity against human HL60 cells. The format is functional, cell-based.
In turn, `COC(=O)[C@H](Cc1ccc(O)cc1)NC(=O)CC/C(C)=C/Cc1c(O)c2c(c(C)c1OC)COC2=O` registered a 50% inhibitory concentration (IC50) of 4.7 µM.

`COc1c(C)c2c(c(O)c1C/C=C(\C)CCC(=O)NC[C@H]1O[C@@H](n3cnc4c(N)ncnc43)[C@H](O)[C@@H]1O)C(=O)OC2` displayed a 50% inhibitory concentration (IC50) above 100 µM.

`COc1c(C)c2c(c(O)c1C/C=C(\C)CCC(=O)N[C@@H](Cc1ccccc1)C(=O)NC[C@H]1O[C@@H](n3cnc4c(N)ncnc43)[C@H](O)[C@@H]1O)C(=O)OC2` gave a half-maximal inhibitory concentration (IC50) above 100 µM.

`COc1c(C)c2c(c(O)c1C/C=C(\C)CCC(=O)N[C@H](Cc1c[nH]c3ccccc13)C(=O)NC[C@H]1O[C@@H](n3cnc4c(N)ncnc43)[C@H](O)[C@@H]1O)C(=O)OC2` displayed a 50% inhibitory concentration (IC50) above 100 µM.

In turn, `COc1c(C)c2c(c(O)c1C/C=C(\C)CCC(=O)N[C@H](Cc1c[nH]c3ccccc13)C(=O)O)C(=O)OC2` had a half-inhibitory concentration (IC50) above 100 µM.

For `COC(=O)[C@H](Cc1ccccc1)NC(=O)CC/C(C)=C/Cc1c(O)c2c(c(C)c1OC)COC2=O`, inhibition was half-maximal at 35 µM (IC50).

In the case of `COc1c(C)c2c(c(O)c1C/C=C(\C)CCC(=O)N[C@@H](C(=O)NC[C@H]1O[C@@H](n3cnc4c(N)ncnc43)[C@H](O)[C@@H]1O)C(C)C)C(=O)OC2`, the half-maximal inhibitory concentration (IC50) is above 100 µM.

The target in another assay is Inosine-5'-monophosphate dehydrogenase 1 (Homo sapiens, UniProt P20839). Briefly: Inhibition of IMPDH1 (unknown origin).
Inosine-5'-monophosphate dehydrogenase 1, sequence (P20839 whole entry): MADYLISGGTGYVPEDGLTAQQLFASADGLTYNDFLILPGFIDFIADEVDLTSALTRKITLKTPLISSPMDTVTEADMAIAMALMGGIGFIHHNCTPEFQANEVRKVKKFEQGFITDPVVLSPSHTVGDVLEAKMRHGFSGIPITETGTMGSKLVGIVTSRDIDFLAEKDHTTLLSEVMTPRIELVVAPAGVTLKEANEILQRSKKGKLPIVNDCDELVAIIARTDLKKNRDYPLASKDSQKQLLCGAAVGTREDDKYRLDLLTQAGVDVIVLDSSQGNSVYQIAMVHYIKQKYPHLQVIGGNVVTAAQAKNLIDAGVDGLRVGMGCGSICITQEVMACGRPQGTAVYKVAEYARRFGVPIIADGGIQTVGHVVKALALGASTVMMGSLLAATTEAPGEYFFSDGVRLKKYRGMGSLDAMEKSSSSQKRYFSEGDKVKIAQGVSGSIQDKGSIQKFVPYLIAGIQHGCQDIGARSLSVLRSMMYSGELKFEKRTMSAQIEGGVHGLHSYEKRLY
`COC(=O)[C@H](Cc1ccc(O)cc1)NC(=O)CC/C(C)=C/Cc1c(O)c2c(c(C)c1OC)COC2=O`: the Ki amounted to 1.83 µM.

In the case of `COc1c(C)c2c(c(O)c1C/C=C(\C)CCC(=O)NC[C@H]1O[C@@H](n3cnc4c(N)ncnc43)[C@H](O)[C@@H]1O)C(=O)OC2`, the Ki amounted to 0.265 µM.

In turn, `COc1c(C)c2c(c(O)c1C/C=C(\C)CCC(=O)N[C@@H](Cc1ccccc1)C(=O)NC[C@H]1O[C@@H](n3cnc4c(N)ncnc43)[C@H](O)[C@@H]1O)C(=O)OC2` registered a Ki of 0.259 µM.

`COc1c(C)c2c(c(O)c1C/C=C(\C)CCC(=O)N[C@H](Cc1c[nH]c3ccccc13)C(=O)NC[C@H]1O[C@@H](n3cnc4c(N)ncnc43)[C@H](O)[C@@H]1O)C(=O)OC2` showed an inhibitory constant (Ki) of 0.056 µM.

In turn, `COc1c(C)c2c(c(O)c1C/C=C(\C)CCC(=O)N[C@H](Cc1c[nH]c3ccccc13)C(=O)O)C(=O)OC2` had a Ki of 0.032 µM.

`COC(=O)[C@H](Cc1ccccc1)NC(=O)CC/C(C)=C/Cc1c(O)c2c(c(C)c1OC)COC2=O`: affinity was put at a Ki of 4.36 µM.

In turn, `COc1c(C)c2c(c(O)c1C/C=C(\C)CCC(=O)N[C@@H](C(=O)NC[C@H]1O[C@@H](n3cnc4c(N)ncnc43)[C@H](O)[C@@H]1O)C(C)C)C(=O)OC2` came in with an inhibition constant Ki of 0.003 µM.

For the next assay, the system named is PC-3. Briefly: Antiproliferative activity against human PC3 cells. The format is functional, cell-based.
`COC(=O)[C@H](Cc1ccc(O)cc1)NC(=O)CC/C(C)=C/Cc1c(O)c2c(c(C)c1OC)COC2=O` had an IC50 of 11 µM.

Consider `COc1c(C)c2c(c(O)c1C/C=C(\C)CCC(=O)NC[C@H]1O[C@@H](n3cnc4c(N)ncnc43)[C@H](O)[C@@H]1O)C(=O)OC2`, for which the 50% inhibitory concentration (IC50) was above 100 µM.

Consider `COc1c(C)c2c(c(O)c1C/C=C(\C)CCC(=O)N[C@@H](Cc1ccccc1)C(=O)NC[C@H]1O[C@@H](n3cnc4c(N)ncnc43)[C@H](O)[C@@H]1O)C(=O)OC2`, for which the IC50 is above 100 µM.

`COc1c(C)c2c(c(O)c1C/C=C(\C)CCC(=O)N[C@H](Cc1c[nH]c3ccccc13)C(=O)NC[C@H]1O[C@@H](n3cnc4c(N)ncnc43)[C@H](O)[C@@H]1O)C(=O)OC2` displayed an IC50 above 100 µM.

Compound `COc1c(C)c2c(c(O)c1C/C=C(\C)CCC(=O)N[C@H](Cc1c[nH]c3ccccc13)C(=O)O)C(=O)OC2` displayed a half-inhibitory concentration (IC50) above 100 µM.

In turn, `COC(=O)[C@H](Cc1ccccc1)NC(=O)CC/C(C)=C/Cc1c(O)c2c(c(C)c1OC)COC2=O` showed an IC50 above 100 µM.

Consider `COc1c(C)c2c(c(O)c1C/C=C(\C)CCC(=O)N[C@@H](C(=O)NC[C@H]1O[C@@H](n3cnc4c(N)ncnc43)[C@H](O)[C@@H]1O)C(C)C)C(=O)OC2`, for which the half-inhibitory concentration (IC50) was above 100 µM.

The values are drawn from ChEMBL document CHEMBL3097995, “NAD-based inhibitors with anticancer potential” (Bioorg Med Chem Lett, 2014).
